Assay [1] addresses Glycogen synthase kinase-3 alpha (Homo sapiens, UniProt P49840). The assay can be described thus: TR-FRET Assay. The method, boiled down: (§1)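 30 min preinc w/ cpd in assay buffer → kinase rxn → EDTA quench → add detection mix (40 nM SA-d2, 2 nM Tb-pSer641 Ab) → TR-FRET read.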
(TR-FRET usually uses a lanthanide donor and a delayed reading to cut background.)

The target in assay [2] is Glycogen synthase kinase-3 beta (Homo sapiens, UniProt P49841). The assay can be described thus: TR-FRET Assay. The method, boiled down: as §1

“And” between values parts separate entries of the source, which are not always exact repeats. Equal entries are not always repeated.

Glycogen synthase kinase-3 alpha, sequence (P49840 whole entry): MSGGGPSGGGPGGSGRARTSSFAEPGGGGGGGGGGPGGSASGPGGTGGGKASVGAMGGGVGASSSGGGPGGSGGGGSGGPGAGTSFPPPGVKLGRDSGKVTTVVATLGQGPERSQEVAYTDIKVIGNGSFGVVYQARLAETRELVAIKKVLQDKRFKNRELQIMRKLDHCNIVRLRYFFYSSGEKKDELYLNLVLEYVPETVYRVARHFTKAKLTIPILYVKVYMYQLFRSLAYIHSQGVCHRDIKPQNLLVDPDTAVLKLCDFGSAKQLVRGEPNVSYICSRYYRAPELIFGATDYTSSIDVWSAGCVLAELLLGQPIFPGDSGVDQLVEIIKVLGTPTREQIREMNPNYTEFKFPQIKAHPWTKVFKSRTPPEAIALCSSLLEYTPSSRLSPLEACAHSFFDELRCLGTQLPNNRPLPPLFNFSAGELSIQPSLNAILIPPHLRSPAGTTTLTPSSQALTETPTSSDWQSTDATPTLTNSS
Glycogen synthase kinase-3 beta, sequence (P49841 whole entry): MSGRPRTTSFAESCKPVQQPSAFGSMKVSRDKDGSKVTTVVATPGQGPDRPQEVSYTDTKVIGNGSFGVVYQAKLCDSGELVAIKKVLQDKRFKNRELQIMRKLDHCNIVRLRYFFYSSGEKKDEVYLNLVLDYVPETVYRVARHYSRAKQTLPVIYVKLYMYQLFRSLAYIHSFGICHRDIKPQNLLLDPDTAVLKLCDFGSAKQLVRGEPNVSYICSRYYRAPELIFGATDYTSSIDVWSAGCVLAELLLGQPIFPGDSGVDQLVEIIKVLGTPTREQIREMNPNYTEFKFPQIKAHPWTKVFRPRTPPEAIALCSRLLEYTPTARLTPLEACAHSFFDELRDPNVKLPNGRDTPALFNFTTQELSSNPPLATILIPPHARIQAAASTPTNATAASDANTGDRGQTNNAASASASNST

Broadly, the IC50 is the midpoint of a concentration-inhibition curve. Higher therefore signals weaker potency in that assay. Regarding `CC[C@@]1(c2cccc(Oc3ncccn3)c2)C2=CN=NC2NC2=C1C(=O)NC(C)(C)C2` (stereo partly specified) [US20250313563, Compound 949330], the IC50 in assay [1] was less than 100 nM; in assay [2], 100 to 1000 nM.

For `CC[C@@]1(c2cccc(-c3ccnc(N4CCOCC4)c3)c2)C2=CN=NC2NC2=C1C(=O)NC(C)(C)C2` (stereo partly specified) [US20250313563, Compound 948825], the IC50 lay in the range of 100 to 1000 nM in assay [1] and 1000 to 5000 nM in assay [2].

With `CC[C@]1(c2cccc(-c3ccnn3-c3ccc(F)cc3)c2)C2=CN=NC2NC2=C1C(=O)NC(C)(C)C2` (stereo partly specified) [US20250313563, Compound 949396], the 50% inhibitory concentration (IC50) in assay [1] and in assay [2] was more than 5000 nM in each case.

Consider `Cc1cccc(S(=O)(=O)N2CC[C@@]3(C2)C2=C(N=NC2)NC2=C3C(=O)CC(C)(C)C2)c1` [US20250313563, Compound 943489], for which the IC50 in assay [1] and in assay [2] was less than 100 nM throughout.

On to `CCCC(=O)N1CC2(C1)CC1(CO2)C2=C(N=NC2)NC2=C1C(=O)CC(C)(C)C2` (stereo unspecified) [US20250313563, Compound 947300], for which the IC50 in assay [1] and in assay [2] was less than 100 nM throughout.

Take `CCC1(c2cccc(N(C)c3ccc(C(F)(F)F)nc3)c2)C2=CN=NC2NC2=C1C(=O)CC(C)(C)C2` (stereo unspecified) [US20250313563, Compound 932634]: the values for the IC50 in assay [1] and in assay [2] were less than 100 nM and 100 to 1000 nM, respectively.

Consider `COc1cccc(S(=O)(=O)N2CC[C@@]3(C2)C2=C(N=NC2)NC2=C3C(=O)CC(C)(C)C2)c1` [US20250313563, Compound 943486], for which the IC50 in assay [1] and in assay [2] was less than 100 nM throughout.

For `CC[C@]1(c2cccc(N3C[C@@H](C)[C@H](C)C3)c2)C2=CN=NC2NC2=C1C(=O)CC(C)(C)C2` (stereo partly specified) [US20250313563, Compound 924504], the IC50 in assay [1] and in assay [2] was 100 to 1000 nM in each case.

Take `CC[C@@]1(c2cccc(-c3ccnc(C)c3)c2)C2=C(CC(C)(C)CC2=O)NC2N=NC(C)=C21` (stereo partly specified) [US20250313563, Compound 913018]: the IC50 lay in the range of 100 to 1000 nM in assay [1] and 1000 to 5000 nM in assay [2].

For the compound `COc1ccc(S(=O)(=O)N2CCC3(CC2)C2=C(N=NC2)NC2=C3C(=O)CC(C)(C)C2)cc1F` [US20250313563, Compound 947478], the 50% inhibitory concentration (IC50) in assay [1] and in assay [2] was less than 100 nM throughout.

In the case of `CC1(C)CC2=C(C(=O)N1)C1(CCN(S(=O)(=O)C3CCCC3)CC1)C1=C(N=NC1)N2` [US20250313563, Compound 943960], the half-inhibitory concentration (IC50) was < 100 nM and 100 to 1000 nM in assay [1]; < 100 nM and 100 to 1000 nM in assay [2].

Consider `CCC1(c2cccc(Br)c2)C2=C(CC(C)(C)CC2=O)NC2N=NC(C(F)(F)F)=C21` (stereo unspecified) [US20250313563, Compound 801324], for which the IC50 in assay [1] and in assay [2] was less than 100 nM each time.

As for `CCC1(c2ccccc2)C2=C(N=NC2)NC2=C1C(=O)CC1(CC1)C2` (stereo unspecified) [US20250313563, Compound 789330], the results for the IC50 in assay [1] and in assay [2] were 100 to 1000 nM and 1000 to 5000 nM, respectively.

As to `CC[C@]1(c2cccc(-c3cnn(C)c3)c2)C2=C(CC(C)(C)NC2=O)NC2N=NC(C(F)(F)F)=C21` (stereo partly specified) [US20250313563, Compound 947871], the concentration for half-maximal inhibition (IC50) in assay [1] is less than 100 nM; in assay [2] it was 100 to 1000 nM.

Take `CC[C@]1(c2cccc(C(F)F)c2)C2=C(CC(C)(C)NC2=O)NC2N=NC(C(F)(F)F)=C21` (stereo partly specified) [US20250313563, Compound 951946]: the values for the IC50 in assay [1] and in assay [2] were 100 to 1000 nM and 1000 to 5000 nM, respectively.

For the compound `CC[C@]1(c2cccc(-c3ccncc3F)c2)C2=C(CC(C)(C)NC2=O)NC2N=NC(C(F)(F)F)=C21` (stereo partly specified) [US20250313563, Compound 948770], the concentration for half-maximal inhibition (IC50) in assay [1] and in assay [2] was 100 to 1000 nM in each case.

For `CC(=O)N1C[C@@]2(C[C@@]3(CO2)C2=C(N=NC2)NC2=C3C(=O)CC(C)(C)C2)[C@@H]1C` [US20250313563, Compound 948438], the IC50 in assay [1] and in assay [2] was less than 100 nM throughout.

Regarding `CCC1(c2cccc(-c3cnn(C)c3C)c2)C2=C(CC(C)(C)NC2=O)NC2N=NC(C(F)(F)F)=C21` (stereo unspecified) [US20250313563, Compound 947403], the IC50 was less than 100 nM in assay [1]; < 100 nM and 100 to 1000 nM in assay [2].

Take `CC(C)(C)CC1N=NC2=C1[C@@](C)(c1cccc(S(=O)(=O)N3CCCC3)c1)C1=C(CC(C)(C)NC1=O)N2` (stereo partly specified) [US20250313563, Compound 108794]: the IC50 in assay [1] and in assay [2] was more than 5000 nM in each case.

In the case of `CC[C@]1(c2cccc(-c3ccncc3F)c2)C2=C(CC(C)(C)CC2=O)NC2N=NC(C(F)(F)F)=C21` (stereo partly specified) [US20250313563, Compound 947326], the IC50 in assay [1] and in assay [2] was less than 100 nM in each case.

In the case of `O=C1C2=C(NC3N=NC=C3C23CCOCC3)C2CCC1C2` (stereo unspecified) [US20250313563, Compound 901464], the IC50 in assay [1] and in assay [2] was 100 to 1000 nM each time.

`CC[C@]1(c2cccc(-c3ccncc3C3CC3)c2)C2=CN=NC2NC2=C1C(=O)NC(C)(C)C2` (stereo partly specified) [US20250313563, Compound 948642]: the IC50 is 100 to 1000 nM in assay [1] and 1000 to 5000 nM in assay [2].

For `Cc1cc(-c2cccc3c2CCC[C@@]32C3=CN=NC3NC3=C2C(=O)CC(C)(C)C3)ccn1` (stereo partly specified) [US20250313563, Compound 945549], the IC50 in assay [1] and in assay [2] was less than 100 nM each time.

For `CC[C@@]1(c2cccc(C(F)(F)F)c2)C2=C(CCN(c3ccc(OC)cc3)C2=O)NC2N=NC(C)=C21` (stereo partly specified) [US20250313563, Compound 948226], the IC50 was less than 100 nM in assay [1] and 100 to 1000 nM in assay [2].

As to `CC[C@@]1(c2cccc(Br)c2)C2=C(C[C@H](C)CC2=O)NC2N=NC(C(F)(F)F)=C21` (stereo partly specified) [US20250313563, Compound 828850], the IC50 in assay [1] and in assay [2] was 100 to 1000 nM throughout.

As to `Cc1csc(S(=O)(=O)N2CCC3(CC2)C2=C(N=NC2)NC2=C3C(=O)CC(C)(C)C2)n1` [US20250313563, Compound 947897], the half-inhibitory concentration (IC50) in assay [1] and in assay [2] was less than 100 nM throughout.

For the compound `CC[C@]1(c2cccc(C(F)(F)F)c2)C2=CN=NC2NC2=C1C(=O)N(C)C[C@@H]2C` (stereo partly specified) [US20250313563, Compound 883979], the 50% inhibitory concentration (IC50) in assay [1] and in assay [2] was less than 100 nM throughout.

For `Cc1ccccc1C(=O)N1CC2(C1)CC1(CO2)C2=C(N=NC2)NC2=C1C(=O)CC(C)(C)C2` (stereo unspecified) [US20250313563, Compound 947287], the figures for the IC50 in assay [1] and in assay [2] were less than 100 nM and 100 to 1000 nM, respectively.

Consider `CC[C@]1(c2cccc(-c3cnc4n3CCCC4)c2)C2=CN=NC2NC2=C1C(=O)CC(C)(C)C2` (stereo partly specified) [US20250313563, Compound 945618], for which the half-maximal inhibitory concentration (IC50) in assay [1] was 1000 to 5000 nM; in assay [2] it was more than 5000 nM.

Take `CC1(C)CC(=O)C2=C(C1)NC1N=NC=C1[C@]21CCCN(S(=O)(=O)Cc2ccccc2)CC1` (stereo partly specified) [US20250313563, Compound 945483]: the IC50 in assay [1] and in assay [2] was 100 to 1000 nM each time.

Consider `CC[C@]1(c2cccc(-c3ccnc(OC)c3F)c2)C2=CN=NC2NC2=C1C(=O)NC(C)(C)C2` (stereo partly specified) [US20250313563, Compound 948520], for which the figures for the half-maximal inhibitory concentration (IC50) in assay [1] and in assay [2] were 100 to 1000 nM and 1000 to 5000 nM, respectively.

Take `CC[C@@]1(c2cccc(-c3cc(C)ncc3C)c2)C2=C(CC(C)(C)NC2=O)NC2N=NC(C(F)(F)F)=C21` (stereo partly specified) [US20250313563, Compound 947364]: the half-maximal inhibitory concentration (IC50) in assay [1] and in assay [2] was 100 to 1000 nM throughout.

`COc1cc(S(=O)(=O)N2CCC3(CC2)C2=C(N=NC2)NC2=C3C(=O)CC(C)(C)C2)ccc1F` [US20250313563, Compound 947263]: the IC50 in assay [1] is < 100 nM and 100 to 1000 nM; in assay [2], < 100 nM and 1000 to 5000 nM.

The values are drawn from BindingDB's records for patent US20250313563 (The Broad Institute, 2025).
